One experiment addresses PRMT5:MEP50 (Homo sapiens, UniProt O14744). Nature of the experiment: PRMT5 biochemical HTRF assay (Biochemical Assay Protocol 1 / 2). The settings on record: biotinylated H4R3 substrate, 1 μM SAM, protocol 1 or 2 not given, activity range 300 pM to 950 pM, read-out: IC50 (PRMT5 inhibition), activity range. How it is done:
Biochemical Assay Protocol 1
(§1) Inhibitory effect of compounds on PRMT5 was assessed using HTRF detection technology in biochemical assay. Biotinylated H4R3 (residues 1-21) was used as a substrate. Compounds were pre-incubated with 15-25 ng PRMT5:MEP50 per well of a 384-well plate for 30 min at room temperature in the assay buffer containing 20 mM Bicine, pH 7.6, 25 mM NaCl, 2 mM DTT, 0.01% Chicken albumin and 0.01% Tween-20. Reaction was initiated by adding 1 μM of SAM and 50 nM biotinylated H4R3. Total assay volume was 15 μL. Reaction was continued for 120 min at room temperature. Then detection solution containing Streptavidin-Eu cryptate, anti-rabbit IgG-XL-665, Histone H4R3 Dimethyl Symmetric (H4R3me2s) Polyclonal Antibody, all prepared in HTRF detection buffer was added and further incubated for 30 min at room temperature. HTRF signal was recorded in PHERAStar microplate reader. Ratio of signal obtained at 665 nm and 620 nm was used to compute the percent inhibition of compound as follows % Inhibition=100−((Test Ratio−Negative control Ratio)/(Positive control Ratio−Negative control Ratio)*100) where Positive control=PRMT5+SAM+H4R3 Negative control=PRMT5+H4R3 Biochemical Assay Protocol 2
as §1, with “2.5” for “15-25”, “4 h” for “120 min”, “control=PRMT5+H4R3” for “control=PRMT5+H4R3 Biochemical Assay Protocol 2”
A general note: In TR-FRET formats the signal depends on donor and acceptor labels being close together.

For another experiment, the system named is PANC-1 cells. Put plainly: Anti-cancer assay (Panc-1), cell viability CellTiterGlo. The class given is cell-based. The settings on record: Homo sapiens, PANC-1, 168 h, 7 days, activity range, lower bound in pM, upper bound in nM. How it is done: Anticancer Activity Assay
Z-138 cells were seeded at a density of 2000-3000 cells per well in culture media (IMDM+10% FBS). PANC-1 (ATCC, CRL-1469™) and MIA PaCa-2 (ATCC, CRL-1420™) cells were seeded at a density of 200-300 cells per well in culture media (DMEM+10% FBS). Cells were seeded in opaque, flat bottomed tissue culture grade 96-well plates and Z-138 cells (suspension) were seeded and treated on the same day with various concentrations of test compounds. PANC-1 and MIA PaCa-2 cells, being adherent, were kept for overnight settlement at standard cell culture conditions (37° C., 5% CO2). On the following day, cells were treated with various concentrations of test compounds. Cells were treated with test compounds for a period of 96 h, 7 days and 10 days, for Z-138 cells, PANC-1 cells and MIA PaCa-2 cells, respectively. Cell viability was assessed using CellTiterGlo™ (Promega, USA) as per manufacturer's instructions. Relative Light Units (RLU) were read in Synergy™ 2 reader (Biotek, USA). The assay measures cellular ATP as an indicator of cell viability. RLU is proportional to the number of viable cells in the respective well.
% inhibition of cell viability was calculated relative to the vehicle control samples containing media with 0.1% DMSO alone as per the formula below. (Avg. of Untreated Control−Avg. of Test)×100 Avg. of Untreated Control
The IC50 values of individual compounds were calculated with Non Linear Regression Analysis using Graph Pad Prism (Graph Pad software, Inc, USA).
Anti-Cancer Assay (Panc-1)
In general terms: ATP-based viability assays read luminescence as a measure of living cells.

Another experiment has as its system Z-138 xenograft. Nature of the experiment: In vivo efficacy, Z-138 xenograft mouse model. Set-up: species or system female NOD.CB17-Prkdc<scid>/J mice. Conditions: mice, oral twice a day; for % of tumor growth inhibition: 1 mg/kg dose, after 38 days. How it is done:
In Vivo Efficacy Experiments Tumor xenograft for mantle cell lymphoma was established by injection of cells into the right flank of female NOD.CB17-Prkdc/J mice with an age between 7-11 weeks purchased from The Jackson Laboratory, USA. All animal study proposals were reviewed and approved by the Institutional Animal Ethics Committee (IAEC) prior to initiation of experimentation. Z-138 Xenograft For Z-138 xenograft mouse model, Z-138 cells (ATCC® CRL-3001™) were grown in IMDM medium supplemented with 10% FBS. Cells were incubated under standard conditions at 37° C. and 5% CO2. For generating tumors, Z-138 cells in IMDM medium were mixed with Matrigel (Corning® Matrigel® Basement Membrane Matrix) in a ratio of 1:1. 10×10^6 cells) in a volume of 200 μL were injected subcutaneously in each mouse to establish tumors. Mice were randomized into treatment groups of 8-10 mice, once tumors reached an average volume between 100 to 120 mm^3. Treatment was initiated on day of randomization and continued until end of the study. The Vehicle and test compound treatment groups were administered respective treatments orally, using gavage tubing, at an application volume of 10 mL/kg per mouse twice a day. Mice were housed in individually ventilated cages (IVC) at room temperature of 22+3° C., humidity 50+20% and 12/12 h light/dark cycle. All the experimental activities were carried-out inside the biosafety cabinets to ensure sterility.
Tumor size was measured with Digimatic Vernier caliper (Mitutoyo, Japan) when the tumors became palpable. Tumor volume (T. V.) is calculated by using the formula: Tumor volume (mm3)=(L×W2)/2 Where, L: Length of tumor, W: Width of tumor in millimeter Percent tumor growth inhibition (% TGI) is calculated using the formula: % TGI=[1−(Tf−Ti)/(Cf−Ci)]×100 Where, Tf and Ti, are the final and initial tumor volumes (test compound), and Cf and Ci are the final and initial mean tumor volumes (vehicle group), respectively. Percent tumor regression is calculated as: % TR:(Ti−Tf)/(Ti)×100 Where, Tf and Ti, are the final and initial tumor volumes, respectively.

This is an account of results in patent US11459330B2, “Substituted bicyclic heterocyclic compounds as PRMT5 inhibitors” (LUPIN LIMITED, priority 2017, dated 2022).

The pIC50 is the negative decadic logarithm of the IC50, by convention in mol/L. What is called IC50 is the midpoint of a concentration-inhibition curve.

pIC50: −log10 of the molar value.

Chain of PRMT5:MEP50 (O14744 whole entry): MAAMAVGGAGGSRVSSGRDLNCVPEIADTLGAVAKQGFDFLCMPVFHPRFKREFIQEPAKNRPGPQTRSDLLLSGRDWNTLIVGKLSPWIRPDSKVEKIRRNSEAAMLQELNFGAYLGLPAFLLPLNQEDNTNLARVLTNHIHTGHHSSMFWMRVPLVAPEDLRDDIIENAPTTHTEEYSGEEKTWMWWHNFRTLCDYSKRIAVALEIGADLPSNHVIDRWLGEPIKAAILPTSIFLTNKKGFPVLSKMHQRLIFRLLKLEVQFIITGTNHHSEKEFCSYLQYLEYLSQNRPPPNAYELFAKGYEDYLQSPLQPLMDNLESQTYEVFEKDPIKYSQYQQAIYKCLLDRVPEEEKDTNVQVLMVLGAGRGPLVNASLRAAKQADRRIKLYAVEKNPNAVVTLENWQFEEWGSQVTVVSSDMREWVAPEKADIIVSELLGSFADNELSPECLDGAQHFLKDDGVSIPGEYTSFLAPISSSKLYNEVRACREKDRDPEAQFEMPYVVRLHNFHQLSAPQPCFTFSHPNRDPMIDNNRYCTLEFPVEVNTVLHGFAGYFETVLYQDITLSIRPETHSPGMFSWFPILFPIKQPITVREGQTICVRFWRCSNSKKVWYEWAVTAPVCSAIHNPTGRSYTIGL
Chain of PRMT5:MEP50 (Q9BQA1 whole entry partner): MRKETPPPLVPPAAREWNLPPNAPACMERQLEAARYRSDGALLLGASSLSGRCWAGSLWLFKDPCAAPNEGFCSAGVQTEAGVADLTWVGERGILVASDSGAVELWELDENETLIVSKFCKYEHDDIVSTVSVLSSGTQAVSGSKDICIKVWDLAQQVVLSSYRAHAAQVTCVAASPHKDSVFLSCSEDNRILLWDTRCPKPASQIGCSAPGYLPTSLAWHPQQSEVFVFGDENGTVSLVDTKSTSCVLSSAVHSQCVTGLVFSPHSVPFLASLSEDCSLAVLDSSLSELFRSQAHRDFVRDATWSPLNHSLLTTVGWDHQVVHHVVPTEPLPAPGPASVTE

As to `Cc1ncnc2c1ccn2[C@@H]1C=C(CCc2cc(F)c3cc(Cl)c(N)nc3c2)[C@@H](O)[C@H]1O` [Compound-13, (1S,2R,5R)-3-(2-(2-amino-3-chloro-5-fluoroquinolin-7-yl)ethyl)-5-(4-methyl-7H-pyrrolo[2,3-d]pyrimidin-7-yl)cyclopent-3-ene-1,2-diol], the pIC50 on PRMT5:MEP50 was 9.02 to 9.52. Also, the concentration for half-maximal inhibition (IC50) in the experiment with PANC-1 cells was in the range of 300 to 20000 pM. The “% of tumor growth inhibition” value in the experiment on Z-138 xenograft worked out at 100%.

Take `Nc1nc2cc(CCC3=C[C@@H](n4ccc5c(N)ncnc54)[C@H](O)[C@@H]3O)cc(F)c2cc1Cl` [Compound-24, (1S,2R,5R)-3-(2-(2-amino-3-chloro-5-fluoroquinolin-7-yl)ethyl)-5-(4-amino-7H-pyrrolo[2,3-d]pyrimidin-7-yl)cyclopent-3-ene-1,2-diol]: the pIC50 at PRMT5:MEP50 was 9.02 to 9.52. For the same molecule, the IC50 with PANC-1 cells is 300 to 20000 pM. For the same molecule, the “% of tumor growth inhibition” value with Z-138 xenograft is 100%.

As to `Nc1nc2cc(CC[C@@]34C[C@@H]3[C@@H](n3ccc5c(N)ncnc53)[C@H](O)[C@@H]4O)cc(F)c2cc1Cl` [Compound-48, (1R,2R,3S,4R,5S)-1-(2-(2-Amino-3-chloro-5-fluoroquinolin-7-yl)ethyl)-4-(4-amino-7H-pyrrolo[2,3-d]pyrimidin-7-yl)bicyclo[3.1.0]hexane-2,3-diol], the pIC50 on PRMT5:MEP50 is 9.02 to 9.52. In the experiment with PANC-1 cells, the IC50 was in the range of 300 to 20000 pM. Also, in the experiment on Z-138 xenograft (5 mg/kg dose), the tumor growth inhibition is recorded as 100% and the tumor regression is 63%.

As to `CC(Cc1cc(F)c2cc(Cl)c(N)nc2c1)C1=C[C@@H](n2ccc3c(N)ncnc32)[C@H](O)[C@@H]1O` (single isomer, unassigned) [Compound-33b], the pIC50 on PRMT5:MEP50 is 9.02 to 9.52. Moreover, in the experiment on PANC-1 cells, the IC50 was 300 to 20000 pM. In the experiment with Z-138 xenograft, the “% of tumor growth inhibition” value is 100%.
